From patent US6939989B2, “Side-chain halogenated amino dicarboxylic acid derivatives as medicaments for treating cardiovascular diseases” (Bayer Aktiengesellschaft, priority 2001, dated 2005)

Columns and labels:
Heme-containing sGC = molecular target: T1, Heme-containing sGC (Rattus norvegicus, UniProt P20595); test: Stimulation of recombinant soluble guanylate cyclase (sGC) in vitro, heme-containing enzyme; type: biochemical
T1 construct: made in house; host or cells: Sf9 insect cells (baculovirus)
T1 sequence (P20595 1-619): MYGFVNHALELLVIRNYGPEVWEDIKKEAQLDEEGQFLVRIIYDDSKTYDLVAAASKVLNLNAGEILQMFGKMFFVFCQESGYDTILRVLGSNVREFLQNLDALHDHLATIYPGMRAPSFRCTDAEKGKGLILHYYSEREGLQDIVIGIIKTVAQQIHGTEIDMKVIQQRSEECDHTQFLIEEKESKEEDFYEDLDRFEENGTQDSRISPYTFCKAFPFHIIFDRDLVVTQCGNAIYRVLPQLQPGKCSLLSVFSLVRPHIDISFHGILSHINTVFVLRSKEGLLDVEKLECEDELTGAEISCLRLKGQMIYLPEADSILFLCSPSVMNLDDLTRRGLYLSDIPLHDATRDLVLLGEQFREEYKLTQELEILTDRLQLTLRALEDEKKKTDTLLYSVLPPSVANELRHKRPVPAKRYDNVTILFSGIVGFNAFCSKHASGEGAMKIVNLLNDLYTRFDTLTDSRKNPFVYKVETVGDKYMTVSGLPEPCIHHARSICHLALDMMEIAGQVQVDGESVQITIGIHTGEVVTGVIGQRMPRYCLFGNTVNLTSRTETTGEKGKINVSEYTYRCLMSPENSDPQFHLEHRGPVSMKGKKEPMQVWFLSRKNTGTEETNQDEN
T1 sequence (P19686 1-690 partner): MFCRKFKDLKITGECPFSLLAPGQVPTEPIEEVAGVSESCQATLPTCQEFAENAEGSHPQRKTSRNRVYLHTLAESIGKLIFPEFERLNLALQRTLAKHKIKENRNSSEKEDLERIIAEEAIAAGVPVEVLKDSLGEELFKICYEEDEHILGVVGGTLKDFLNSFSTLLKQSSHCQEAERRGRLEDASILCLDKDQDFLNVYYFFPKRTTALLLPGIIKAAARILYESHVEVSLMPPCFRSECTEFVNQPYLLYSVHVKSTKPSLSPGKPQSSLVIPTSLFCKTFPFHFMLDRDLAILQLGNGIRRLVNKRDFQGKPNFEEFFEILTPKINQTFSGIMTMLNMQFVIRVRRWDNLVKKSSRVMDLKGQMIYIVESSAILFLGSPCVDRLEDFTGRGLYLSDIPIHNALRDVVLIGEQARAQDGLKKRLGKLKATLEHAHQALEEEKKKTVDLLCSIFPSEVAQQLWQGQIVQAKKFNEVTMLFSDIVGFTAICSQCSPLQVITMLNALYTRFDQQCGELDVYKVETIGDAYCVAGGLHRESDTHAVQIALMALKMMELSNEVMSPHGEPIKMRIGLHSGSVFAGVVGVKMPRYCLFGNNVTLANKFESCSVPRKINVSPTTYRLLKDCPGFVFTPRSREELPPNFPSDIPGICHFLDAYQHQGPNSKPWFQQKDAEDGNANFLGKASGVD
Description: The investigations of the stimulation of recombinant soluble guanylate cyclase (sGC) […] heme-dependent sGC inhibitor 1H-1,2,4-oxadiazole-(4,3a)-quinoxalin-1-one (ODQ) were carried out according to the method described in detail in the following literature reference: M. Hoenicka, E. M. Becker, H. Apeler, T. Sirichoke, H. Schroeder, R. Gerzer and J.-P. Stasch: Purified soluble guanylyl cyclase expressed in a baculovirus/Sf9 system: stimulation by YC-1, nitric oxide, and carbon oxide. J. Mol. Med. 77 (1999): 14-23.
(§1) Activation of sGC by a test substance is stated as n-fold stimulation of basal activity.

Heme-free sGC = molecular target: T2, Heme-free sGC (Rattus norvegicus, UniProt P20595); test: Stimulation of recombinant soluble guanylate cyclase (sGC) in vitro, heme-free enzyme; type: biochemical
T2 construct: made in house; host or cells: Sf9 insect cells (baculovirus)
T2 sequence (P20595 1-619): T1 sequence (P20595 1-619)
T2 sequence (P19686 1-690 partner): T1 sequence (P19686 1-690 partner)
Description: The investigations of the stimulation of recombinant soluble guanylate cyclase (sGC) and the compounds according to the invention with and without sodium nitroprusside and with and without the heme-dependent sGC inhibitor 1H-1,2,4-oxadiazole-(4,3a)-quinoxalin-1-one (ODQ) were carried out according to the method described in detail in the following literature reference: M. Hoenicka, E. M. Becker, H. Apeler, T. Sirichoke, H. Schroeder, R. Gerzer and J.-P. Stasch: Purified soluble guanylyl cyclase expressed in a baculovirus/Sf9 system: stimulation by YC-1, nitric oxide, and carbon oxide. J. Mol. Med. 77 (1999): 14-23.
The heme-free guanylate cyclase was obtained by adding Tween 20 to the sample buffer (final concentration 0.5%).
as §1

## O=C(O)CCCCN(CCc1ccccc1OCc1ccc(-c2ccc(C(F)(F)F)cc2)cc1Cl)Cc1ccc(C(=O)O)cc1 [Example 6]
Heme-containing sGC; Ex. 6 0.001 μM
  Stimulation (n-fold), heme-containing sGC, basal: 2 n-fold
Heme-containing sGC; Ex. 6 0.001 μM + DEA/NO 0.001 μM
  Stimulation (n-fold), heme-containing sGC, + DEA/NO (0.001 μM): 6 n-fold
Heme-containing sGC; Ex. 6 0.001 μM + DEA/NO 0.01 μM
  Stimulation (n-fold), heme-containing sGC, + DEA/NO (0.01 μM): 32 n-fold
Heme-containing sGC; Ex. 6 0.001 μM + DEA/NO 0.1 μM
  Stimulation (n-fold), heme-containing sGC, + DEA/NO (0.1 μM): 127 n-fold
Heme-containing sGC; Ex. 6 0.001 μM + ODQ 10 μM
  Stimulation (n-fold), heme-containing sGC, + ODQ (10 μM): 35 n-fold
Heme-containing sGC; Ex. 6 0.01 μM
  Stimulation (n-fold), heme-containing sGC, basal: 9 n-fold
Heme-containing sGC; Ex. 6 0.01 μM + DEA/NO 0.001 μM
  Stimulation (n-fold), heme-containing sGC, + DEA/NO (0.001 μM): 13 n-fold
Heme-containing sGC; Ex. 6 0.01 μM + DEA/NO 0.01 μM
  Stimulation (n-fold), heme-containing sGC, + DEA/NO (0.01 μM): 39 n-fold
Heme-containing sGC; Ex. 6 0.01 μM + DEA/NO 0.1 μM
  Stimulation (n-fold), heme-containing sGC, + DEA/NO (0.1 μM): 134 n-fold
Heme-containing sGC; Ex. 6 0.01 μM + ODQ 10 μM
  Stimulation (n-fold), heme-containing sGC, + ODQ (10 μM): 95 n-fold
Heme-containing sGC; Ex. 6 0.1 μM
  Stimulation (n-fold), heme-containing sGC, basal: 18 n-fold
Heme-containing sGC; Ex. 6 0.1 μM + DEA/NO 0.001 μM
  Stimulation (n-fold), heme-containing sGC, + DEA/NO (0.001 μM): 25 n-fold
Heme-containing sGC; Ex. 6 0.1 μM + DEA/NO 0.01 μM
  Stimulation (n-fold), heme-containing sGC, + DEA/NO (0.01 μM): 52 n-fold
Heme-containing sGC; Ex. 6 0.1 μM + DEA/NO 0.1 μM
  Stimulation (n-fold), heme-containing sGC, + DEA/NO (0.1 μM): 157 n-fold
Heme-containing sGC; Ex. 6 0.1 μM + ODQ 10 μM
  Stimulation (n-fold), heme-containing sGC, + ODQ (10 μM): 147 n-fold
Heme-containing sGC; Ex. 6 1.0 μM
  Stimulation (n-fold), heme-containing sGC, basal: 23 n-fold
Heme-containing sGC; Ex. 6 1.0 μM + DEA/NO 0.001 μM
  Stimulation (n-fold), heme-containing sGC, + DEA/NO (0.001 μM): 30 n-fold
Heme-containing sGC; Ex. 6 1.0 μM + DEA/NO 0.01 μM
  Stimulation (n-fold), heme-containing sGC, + DEA/NO (0.01 μM): 53 n-fold
Heme-containing sGC; Ex. 6 1.0 μM + DEA/NO 0.1 μM
  Stimulation (n-fold), heme-containing sGC, + DEA/NO (0.1 μM): 151 n-fold
Heme-containing sGC; Ex. 6 1.0 μM + ODQ 10 μM
  Stimulation (n-fold), heme-containing sGC, + ODQ (10 μM): 150 n-fold
Heme-containing sGC; Ex. 6 10 μM
  Stimulation (n-fold), heme-containing sGC, basal: 25 n-fold
Heme-containing sGC; Ex. 6 10 μM + DEA/NO 0.001 μM
  Stimulation (n-fold), heme-containing sGC, + DEA/NO (0.001 μM): 30 n-fold
Heme-containing sGC; Ex. 6 10 μM + DEA/NO 0.01 μM
  Stimulation (n-fold), heme-containing sGC, + DEA/NO (0.01 μM): 67 n-fold
Heme-containing sGC; Ex. 6 10 μM + DEA/NO 0.1 μM
  Stimulation (n-fold), heme-containing sGC, + DEA/NO (0.1 μM): 174 n-fold
Heme-containing sGC; Ex. 6 10 μM + ODQ 10 μM
  Stimulation (n-fold), heme-containing sGC, + ODQ (10 μM): 159 n-fold
Heme-free sGC; Ex. 6 0.001 μM
  Stimulation (n-fold), heme-free sGC, basal: 10 n-fold
Heme-free sGC; Ex. 6 0.001 μM + ODQ 10 μM
  Stimulation (n-fold), heme-free sGC, + ODQ (10 μM): 25 n-fold
Heme-free sGC; Ex. 6 0.01 μM
  Stimulation (n-fold), heme-free sGC, basal: 55 n-fold
Heme-free sGC; Ex. 6 0.01 μM + ODQ 10 μM
  Stimulation (n-fold), heme-free sGC, + ODQ (10 μM): 61 n-fold
Heme-free sGC; Ex. 6 0.1 μM
  Stimulation (n-fold), heme-free sGC, basal: 81 n-fold
Heme-free sGC; Ex. 6 0.1 μM + ODQ 10 μM
  Stimulation (n-fold), heme-free sGC, + ODQ (10 μM): 79 n-fold
Heme-free sGC; Ex. 6 1.0 μM
  Stimulation (n-fold), heme-free sGC, basal: 83 n-fold
Heme-free sGC; Ex. 6 1.0 μM + ODQ 10 μM
  Stimulation (n-fold), heme-free sGC, + ODQ (10 μM): 83 n-fold
Heme-free sGC; Ex. 6 10 μM
  Stimulation (n-fold), heme-free sGC, basal: 84 n-fold
Heme-free sGC; Ex. 6 10 μM + ODQ 10 μM
  Stimulation (n-fold), heme-free sGC, + ODQ (10 μM): 83 n-fold
